The values that follow come from patent US20100249172A1, “9-CHLORO NOSCAPINE AND ITS USE IN TREATING CANCERS, INCLUDING DRUG-RESISTANT CANCERS” (EMORY UNIVERSITY, priority 2007, published 2010).

Test [1] relates to MCF-7 cells. Briefly: Cell cycle analysis by flow cytometry (propidium iodide). Format: cell-based, human. The note with it: for G0/G1 % / G2/M % / S % / Sub-G1 %: mean ± S.E.M.; for accumulation of cells in the G2/M phase (in words): 24 hours; for percent sub-G1 cells compared with noscapine: lower doses (5 μM and 10 μM), 72 hours. The method, then: The flow cytometric evaluation of the cell cycle status was performed as described previously. Briefly, 2×10^6 cells were centrifuged, washed twice with ice-cold PBS, and fixed in 70% ethanol. Tubes containing the cell pellets were stored at 4° C. for at least 24 hours. Cells were then centrifuged at 1000×g for 10 min and the supernatant was discarded. The pellets were washed twice with 5 ml of PBS and then stained with 0.5 ml of propidium iodide (0.1% in 0.6% Triton-X in PBS) and 0.5 ml of RNase A (2 mg/ml) for 45 minutes in dark. Samples were then analyzed on a FACSCalibur flow cytometer (Beckman Coulter Inc., Fullerton, Calif.).
To investigate the precise mechanisms of cell death, the effect of 9-cloro-noscapine and other halogenated noscapine analogs on percent G2/M cells (mitotic index) and percent sub-G1 cells (apoptotic index) was examined as a function of dose and time in MCF-7 cells using fluorescence activated cell sorting (FACS) analysis. The effect of all compounds including noscapine was evaluated at three doses-5 μM, 10 μM and 25 μM for 0, 24, 48 and 72 hours of drug treatment. […] Fluorescently labeled DNA is a good indicator of cell cycle progression and cell death. An unreplicated complement of diploid (2N) DNA cells represents the G1 phase while duplicated tetraploid (4N) DNA cells represent G2 and M phases. Cells in the process of DNA duplication between diploid and tetraploid peaks represent S phase when DNA is being synthesized. Less than diploid DNA appears in populations of dying cells that degrade their DNA to different extents. Treatment of MCF-7 cells with these compounds for 0, 24, 48 and 72 hours led to profound perturbations of the cell cycle profile at 25 μM (FIGS. 3 A-D). […] The distribution of cell population over G0/G1, S, G2/M and sub-G1 phases of the cell cycle for 25 μM concentration is shown in Table 1.

Test [2] has as its target tubulin. The note with it: literature value [18]; read-out: dissociation constant (Kd) for binding to tubulin; cited from earlier work.

With `COc1ccc2c(c1OC)C(=O)O[C@@H]2[C@H]1c2c(cc3c(c2OC)OCO3)CCN1C` [Nos, (S)-6,7-dimethoxy-3-((R)-4-methoxy-6-methyl-5,6,7,8-tetrahydro[1,3]-dioxolo-[4,5-g]isoquinolin-5-yl)isobenzo-furan-1(3H)-one, reference compound], the G0/G1 % stood at 54.8 ± 0.03% in test [1] (25 μM, 0 h); 18.3 ± 3.3% in test [1] (25 μM, 24 h); 19.8 ± 1.9% in test [1] (25 μM, 48 h); 20.5 ± 0.2% in test [1] (25 μM, 72 h). Further, the G2/M % in test [1] (25 μM, 0 h) stood at 29.9 ± 2.2%; in test [1] (25 μM, 24 h), 50.2 ± 3.6%; in test [1] (25 μM, 48 h) it was 28.07 ± 0.2%; in test [1] (25 μM, 72 h) it was 26.3 ± 0.2%. Also, the S % in test [1] (25 μM, 0 h) amounted to 13.2 ± 0.2%; in test [1] (25 μM, 24 h) it was 3.4 ± 0.8%; in test [1] (25 μM, 48 h), 4.1 ± 0.6%; in test [1] (25 μM, 72 h), 7.06 ± 0.2%. Moreover, the Sub-G1 % came out at 0.2 ± 0.03% in test [1] (25 μM, 0 h); 10.2 ± 1.2% in test [1] (25 μM, 24 h); 36.8 ± 3.7% in test [1] (25 μM, 48 h); 36.9 ± 0.2% in test [1] (25 μM, 72 h). Also, the dissociation constant Kd in test [2] was 144 ± 2.8 µM.

In the case of `COc1ccc2c(c1OC)C(=O)O[C@@H]2[C@H]1c2c(c(I)c3c(c2OC)OCO3)CCN1C` [9-I-nos], the “sub-G1 population compared with noscapine” value in test [1] (25 μM) is “slightly lower”. In test [1] (25 μM, 0 h), this molecule came in with a G0/G1 % of 60.6 ± 4.6%, a G2/M % of 23.1 ± 3.7%, a S % of 13.9 ± 2.3% and a Sub-G1 % of 0.3 ± 0.2%. In addition, in test [1] (25 μM, 24 h), the G0/G1 % came out at 17 ± 2.3%, the G2/M % was 44.5 ± 5.1%, the S % is reported as 3.1 ± 1.3% and the Sub-G1 % was 7.7 ± 1.7%. Moreover, in test [1] (25 μM, 48 h), the G0/G1 % worked out at 15.4 ± 4.5%, the G2/M % is on record as 25.9 ± 4.1%, the S % stood at 2.9 ± 0.6% and the Sub-G1 % is reported as 28.1 ± 3.1%. In test [1] (25 μM, 72 h), the G0/G1 % was determined as 17 ± 1.9%, the G2/M % came to 20.7 ± 2.2%, the S % is on record as 4.9 ± 2.2% and the Sub-G1 % came to 30.1 ± 3.1%.

In test [1] (25 μM, 0 h), `COc1ccc2c(c1OC)C(=O)O[C@@H]2[C@H]1c2c(c(F)c3c(c2OC)OCO3)CCN1C` [9-F-nos] yielded a G0/G1 % of 67.7 ± 5.6%, a G2/M % of 18.5 ± 2.2%, a S % of 11.9 ± 1.5% and a Sub-G1 % of 0.2 ± 0.04%. In test [1] (25 μM, 24 h), this molecule came in with a G0/G1 % of 10.8 ± 2.4%, a G2/M % of 65.9 ± 4.4%, a S % of 3.8 ± 1.1% and a Sub-G1 % of 6.8 ± 2.1%. Moreover, the “accumulation of cells in the G2/M phase (in words)” value in test [1] (25 μM) is given as “massive accumulation of cells in the G2/M phase”. Moreover, in test [1] (25 μM, 48 h), the G0/G1 % is given as 7.9 ± 2.8%, the G2/M % worked out at 43.7 ± 2.9%, the S % is reported as 3.5 ± 0.8% and the Sub-G1 % is listed as 34.5 ± 2.5%. Moreover, in test [1] (25 μM, 72 h), the G0/G1 % came out at 5.2 ± 2.2%, the G2/M % is given as 34.4 ± 3.4%, the S % is listed as 3.6 ± 1.5% and the Sub-G1 % worked out at 48.6 ± 3.3%. Moreover, in test [1], the “percent sub-G1 cells compared with noscapine” value was “higher”.

As to `COc1ccc2c(c1OC)C(=O)O[C@@H]2[C@H]1c2c(c(Br)c3c(c2OC)OCO3)CCN1C` [9-Br-nos], the G0/G1 % in test [1] (25 μM, 0 h) is on record as 53.3 ± 2.8%; in test [1] (25 μM, 24 h) it was 10.4 ± 1.8%; in test [1] (25 μM, 48 h), 6.5 ± 2.5%; in test [1] (25 μM, 72 h), 4.6 ± 2.1%. In addition, the G2/M % in test [1] (25 μM, 0 h) was 28.9 ± 4.4%; in test [1] (25 μM, 24 h), 61.9 ± 3.6%; in test [1] (25 μM, 48 h) it was 43.8 ± 3.4%; in test [1] (25 μM, 72 h), 33.7 ± 3.5%. Further, the S % in test [1] (25 μM, 0 h) is on record as 12.7 ± 1.8%; in test [1] (25 μM, 24 h) it was 3.4 ± 1.2%; in test [1] (25 μM, 48 h), 2.8 ± 0.7%; in test [1] (25 μM, 72 h) it was 2.4 ± 1.6%. The Sub-G1 % in test [1] (25 μM, 0 h) is 0.2 ± 0.1%; in test [1] (25 μM, 24 h), 6.9 ± 2.4%; in test [1] (25 μM, 48 h), 35.1 ± 3.5%. Besides, in test [1] (25 μM), the “accumulation of cells in the G2/M phase (in words)” value is on record as “massive accumulation of cells in the G2/M phase”. In addition, the “percent sub-G1 cells compared with noscapine” value in test [1] is reported as “higher”.
